Results published in patent publication US8592359B2 (priority 2010, dated 2013).

Test system: amylase Stainzyme® 12,0 1
Assay: Residual amylolytic activity after storage in a liquid washing agent (starch / dinitrosalicylic acid)
Assay type: biochemical
Conditions: 1 wt % stabilizer, 4 weeks at 30° C., initial activity 100%
Text: A liquid washing agent of the following composition serves as a baseline washing agent formulation (all indications in percent by weight): 0.3 to 0.5% xanthan, 0.2 to 0.4% antifoaming agent, 6 to 7% glycerol, 0.3 to 0.5% ethanol, 4 to 7% FAEOS (fatty alcohol ether sulfate), 24 to 28% nonionic surfactants, 1 to 2% sodium citrate (dihydrate), 2 to 4% soda, 14 to 16% coconut fatty acids, 0.5% HEDP (1-hydroxyethane-(1,1-diphosphonic acid)), 0 to 0.4% PVP (polyvinylpyrrolidone), 0 to 0.05% optical brightener, 0 to 0.001% dye, remainder demineralized water.
The monosaccharide glycerate glucosyl glycerate was incorporated, as the component stabilizing the hydrolytic enzyme, into the baseline washing agent formulation according to Example 2 (see Table 2, indications in this regard in wt %). […] The amylase used was the Stainzyme® 12,0 1 product of the company Novozymes A/S. The amylase was used in the washing agent either alone or in combination with the protease of Example 2 (utilization quantity: 1.0 wt % amylase and/or 1.0 wt % protease, respectively active substance).
After storage, the respective residual amylolytic activity was determined by incubating the samples under defined reaction conditions (tris-maleate buffer, pH 6.5, 50° C., 15 min) with 0.67% starch (FLUKA no. 85642, from potatoes, soluble, pretreated per Zulkowsky (treated with glycerol at 190° C.)). […]

OB(O)O [boric acid]
residual amylolytic activity after storage (with protease (1.0 wt %)): 92%
residual amylolytic activity after storage (without protease): 97%
